Measurements from patent US10450317B2, “Notch pathway signaling inhibitor compounds” (Eli Lilly and Company, priority 2015, dated 2019).

What was measured:
[1] = test system: mouse Notch1; experiment: Notch1 N1ICD nuclear accumulation cellular imaging assay; assay type: cell-based; details: HEK293ΔE12 cells, 24 hours treatment, n=2; read-out: average IC50 for the nuclear N1ICD signal
Method: HEK293ΔE12 cells (HEK293 cells are engineered to stably express mouse Notch1 cDNA coding for amino acid 1703-2183, Np_932740.3, (Full length mouse Notch 1 protein precursor: SEQ ID NO:1) with 23 amino acid signal peptide sequence, […] (SEQ ID NO:2), at its N-terminus) are plated at 5000 cells/well in 96 well plates, incubated in Dulbecco's Modified. Eagle's Medium (DMEM)-high glucose with 5% fetal bovine serum (FBS) at 37° C., 5% CO2 for 24 hours. Cells are treated with test compound, dosing at 10 points of 1:3 dilutions across the range of 1000 nM to 0.05 nM, and with final dimethyl sulfoxide (DMSO) concentration at 0.2%. […] Plates are scanned with ACUMEN EXPLORER™ Laser-scanning fluorescence microplate cytometer (TTP LABTECH LTD) to measure total cell nuclear count/well and total nuclear area/well with fluorescence at 655 nm-705 nm (emission of DNA bound propidium iodide) and fluorescence of antibody binding to N1ICD in nuclear region at 505 nm-530 nm. The main assay output is a ratio of total fluorescence of nuclear N1ICD to total nuclear area, the normalized nuclear N1ICD signal. […] Concentration response and the IC50 are determined by curve fitting to a four parameter logistic for the nuclear N1ICD signal, while the % cell number is plotted in the same graph for cytotoxicity profiling.

[2] = test system: hair cell generation markers Atoh1, Pou4f3, Myo7a in organ of Corti explants; experiment: Organ of Corti explant assay, hair cell marker gene expression by qRT-PCR; assay type: cell-based, mice; details: 1 μM, fold-induction relative to negative control, ± SEM
Method: Generally, organ of Corti organotypic explant culture is carried out on Day 0 according to the method described in Parker et al., Journal of Visualized Experiments, 2010, (36), e1685. Explant culture is carried out for 4-7 days at which point the culture is either prepared for cellular lysis for qRT-PCR, or tissue fixation for immunohistochemistry.
The bulla and surrounding tissue from the petrous portion of the temporal bone are removed from 1 to 4 day-old postnatal mice (transgenic strain: Atoh1-driven nGFP; Lumpkin E A, et al., Gene Expr Patterns, 2003, (36):389-95) of both sexes. Organs of Corti are dissected in Hanks solution, the spiral ligament is removed and the explants are placed on cover slips coated with poly-L-ornithine (0.01%, Sigma) and laminin ([…], Becton Dickinson) to obtain a preparation with a flat cochlear surface. Each cochlear explant is then placed in a single well of a 24 well plate (Falcon) and cultured in DMEM (Invitrogen) with 5% fetal bovine serum, 5% horse serum, and penicillin-streptomycin (LifeTechnologies). Experimental compounds are added with medium on Day 0 and replaced every 2-3 days. All cultures are maintained in a 5% CO2 humidified incubator at 37° C.
RNA Extraction is carried out by lysing the explant tissue with 350 μl RLT Plus buffer (Qiagen) per well, and total RNA is purified by RNeasy® Plus Mini Kit (Qiagen). cDNA synthesis is carried out with the SuperScript® III First-Strand Synthesis System (LifeTechnologies) using random hexamers. To quantify the induction of hair cell marker expression, qPCR is performed with TaqMan Gene Expression Master Mix (LifeTechnologies, 4369016) and probes to detect genes of interest (e.g. […]; Assay ID Mm00476035_s1, Pou4f3; Assay ID Mm04213795_s1 and Myo7a; Assay ID Mm01274015_m1, LifeTechnologies) and an endogenous control gene, Tbp (Assay ID Mm00446971_m1, LifeTechnologies). Relative gene expression between treatment groups is analyzed using the ΔΔCT method and replicate measurements are averaged. Experiments are carried out in triplicate, at a minimum, and reported as a grand mean.
Data (±SEM) represent the fold-induction in gene expression relative to negative control-treated samples.

| IC50 [1] [nM] | Structure (SMILES) | RQ of Atoh1 expression [2] | RQ of Myo7a expression [2] | RQ of Pou4f3 expression [2] |
| --- | --- | --- | --- | --- |
| 0.37 | COc1ccc2c(c1)N1CCC(C)(C)C1=CC(=O)C2NC(=O)[C@H](C)NC(=O)CCC(F)(F)F (single isomer, unassigned) [Compound 1, Isomer 2] | 3.72 ± 0.54 | 1.73 ± 0.33 | 2.04 ± 0.35 |
| 1.55 | C[C@H](NC(=O)CCC(F)(F)F)C(=O)NC1C(=O)C=C2N(CCC2(C)C)c2ncccc21 (single isomer, unassigned) [Compound 2, Isomer 2] | 3.10 ± 0.69 | 1.49 ± 0.22 | 1.65 ± 0.25 |
